Experimental data published in patent US20030176500A1, “Medium chain fatty acids applicable as antimicrobial agents” (priority 2000, published 2003).

Test system: E. coli K88
Experiment: Control of E. coli K88 growth in Brain Heart Infusion broth (OD600nm)
Assay type: cell-based, Escherichia coli
Settings: colistine 12 ppm, sodium salt of MCFA 1200 ppm; for OD600nm: pH 4.0, 37° C., MCFA values higher by intrinsic turbidity
Description: Three samples of 100 ml of fermentation broth (Brain Heart Infusion) were equally inoculated with an overnight culture of E. coli K88 (pathogen in gastrointestinal tract of piglet) and further incubated at 37° C. The optical density at 600 nm (OD600nm)—which is proportional to the amount of E. coli cells present (FIG. 1)—was measured. As soon as an OD600nm of between 0.2 and 0.5 was obtained,
(1) nothing was added to the first sample,
(2) 12 ppm of colistine was added to the second sample and
(3) 1200 ppm of the sodium salt of MCFA (mixture containing 50% of fatty acid with 8 carbon atoms and 50% of fatty acid with 10 carbon atoms) was added to the third sample.
The samples were further incubated at 37° C. for 4 hours at pH 4.0. The OD600nm was measured evey hour. The samples were removed from the incubation after 4 hours, the pH was measured in order to register possible pH changes during incubation.

Substance: colistine
- OD600nm (2 hours after pH setting): 0.420
- OD600nm (3 hours after pH setting): 0.449
- OD600nm (4 hours after pH setting): 0.455
- Difference in OD600nm (between 2 and 4 hours): 0.035
- Growth % (blank = 100): 44%
- growth of E. coli retarded (pH 4.0): 56%
